For data set [1], the system named is Mycobacterium smegmatis 607. Nature of the data set: Antimicrobial potency, cylinder agar plate method, Bleomycin A2 (copper-free base) assumed as 1000 U/mg. It is filed as cell-based. The conditions noted are these: for Antimicrobial potency: Mycobacterium smegmatis 607. As to the method: 1. Antimicrobial potency was assayed by a cylinder agar plate method on the basis of Bleomycin A2 (copper-free base) assumed as 1000 U/mg, using Mycobacterium smegmatis 607 as test organism.
^(1) Assayed by a cylinder-agar plate method using Mycobacterium
smegmatis 607 as test organism, the potency of bleomycin A2
(copper-free base) being assumed as 1000 unit/mg.
The resulting compound has 0.65 of Rf value of the Silica gel thin layer chromatograph (CH3 OH: 10 %-CH3 COONH4 : 10 %-NH4 OH = 10 : 9 : 1) and 0.53 of Rf value of the Avicel thin layer chromatography (n-C3 H7 OH : pyridine : CH3 COOH : H2 O = 15 : 10 : 3 : 12) which are same with those of the 3-morpholinopropylaminobleomycin. The antimicrobial activity to Mycobacterium smegmatis 607 by the cylinder-agar plate method (the standard copper-free bleomycin A2 free base 1,000 U/mg) was 605 U/mg.

Data set [2] deals with Ehrlich ascites carcinoma. The experiment in a line: Antitumor activity and toxicity in ICR-SLC mouse inoculated with Ehrlich ascites carcinoma, i.p. for ten consecutive days. The note with it: for Chemotherapeutic index: Table 5, ten consecutive days into peritoneal cavity, evaluated 50 days after beginning. It counts as in vivo. The protocol:
The phleomycin was administered for ten consecutive days into peritoneal cavity of a ICR-SLC mouse, into which Ehrlich ascites carcinoma had been inoculated. Fifty days after the beginning of the experiment, measurements were made for (1) the number of dead mouse owing to toxicity, (2) the number of survived mouse, (3) mean survival period in 50 days, and (4) the ratio of mean survival period to that of reference mouse multiplied by 100. The chemotherapeutic index was calculated from the values of ED50 (50 % effective dose) and LD50 (50 % lethal dose) which were obtained as given below.
ED50 value: The maximum dose level within the range of logevity ratio of 100 to 200.
LD50 value: Calculated according to Behrens-Karber method from the data of (1) and (2).
^(2) A bleomycin was administered for ten consecutive days into
peritoneal cavity of a ICR-SLC mouse, where Ehrlich ascites carcinoma had
been inoculated, and 50 days after the beginning of experiment the […]

Setting [3] is: phleomycins of Table 1, Bleomycin A2 (copper-free base) = 1000 U/mg.
The mark [4] stands for this setting: bleomycins of Table 5, bleomycin A2 (copper-free base) = 1000 unit/mg.
Setting [5] is: 0.19 mg/kg/day for 10 days i.p.
Setting [6] is: 0.39 mg/kg/day for 10 days i.p.
[7] abbreviates: 0.78 mg/kg/day for 10 days i.p.
[8] abbreviates: 1.56 mg/kg/day for 10 days i.p.
The mark [9] stands for this setting: 3.12 mg/kg/day for 10 days i.p.
Where [10] appears, read: 6.25 mg/kg/day for 10 days i.p.
Where [11] appears, read: 12.5 mg/kg/day for 10 days i.p.
The mark [12] stands for this setting: 25.0 mg/kg/day for 10 days i.p.

For 2-(Imidazol-4-yl)ethylaminophleomycin, the Antimicrobial potency in data set [1] (setting [3]) amounted to 678 unit/mg.

For 2-N,N-Diethylaminoethylaminophleomycin, the Antimicrobial potency in data set [1] (setting [3]) is 882 unit/mg.

With 2-N,N-Dimethylaminoethylaminobleomycin, the Chemotherapeutic index in data set [2] stood at 7.8. Also, the Antimicrobial potency in data set [1] (setting [4]) was determined as 897 Unit/mg.

Take 2-N,N-Dimethylaminoethylaminophleomycin: the Antimicrobial potency in data set [1] (setting [3]) was 718 unit/mg.

“3-(3-Morpholinopropylamino)propylaminophleomycin”: in data set [1] (setting [3]), the Antimicrobial potency worked out at 961 unit/mg.

Substance “3-(3-N,N-Dimethylaminopropylamino)propylaminobleomycin” registered a Chemotherapeutic index in data set [2] of 54. In addition, the Antimicrobial potency in data set [1] (setting [4]) came out at 1670 Unit/mg.

In turn, “3-(3-N-Benzylaminopropylamino)propylaminobleomycin” registered a Chemotherapeutic index in data set [2] of 24.0. The same substance showed an Antimicrobial potency in data set [1] (setting [4]) of 6000 Unit/mg.

“3-(3-N-Benzylaminopropylamino)propylaminophleomycin” displayed an Antimicrobial potency in data set [1] (setting [3]) of 6710 unit/mg.

Consider “3-(3-N-Cyclohexylaminopropylamino)propylaminobleomycin”, for which the Chemotherapeutic index in data set [2] is 39.5. The same substance had an Antimicrobial potency in data set [1] (setting [4]) of 12335 Unit/mg.

As to “3-(3-N-Cyclohexylaminopropylamino)propylaminophleomycin”, the Antimicrobial potency in data set [1] (setting [3]) came to 8570 unit/mg.

In data set [2], “3-(3-N-n-Butylaminopropylamino)propylaminobleomycin” returned a Chemotherapeutic index of 59.2. The Antimicrobial potency in data set [1] (setting [4]) turned out to be 5840 Unit/mg.

As for “3-(3-N-n-Butylaminopropylamino)propylaminophleomycin”, the Antimicrobial potency in data set [1] (setting [3]) is 4672 unit/mg.

In turn, “3-(3-Piperidinopropylamino)propylaminobleomycin” gave a Chemotherapeutic index in data set [2] of 16.8. The substance further gave an Antimicrobial potency in data set [1] (setting [4]) of 3580 Unit/mg.

“3-(3-Piperidinopropylamino)propylaminophleomycin”: in data set [1] (setting [3]), the Antimicrobial potency was 2864 unit/mg.

With “3-(3-Pyrrolidinopropylamino)propylaminobleomycin”, the Chemotherapeutic index in data set [2] is listed as 26.4. This substance had an Antimicrobial potency in data set [1] (setting [4]) of 3286 Unit/mg.

In data set [1] (setting [3]), “3-(3-Pyrrolidinopropylamino)propylaminophleomycin” gave an Antimicrobial potency of 2051 unit/mg.

“3-(N,N,N-Trimethylamino)propylaminophleomycin chloride” had an Antimicrobial potency in data set [1] (setting [3]) of 506 unit/mg.

The substance “3-(N,N-Dimethylaminopropylamino)propylaminophleomycin” returned an Antimicrobial potency in data set [1] (setting [3]) of 1336 unit/mg.

In data set [1] (setting [3]), 3-Amidinopropylaminophleomycin yielded an Antimicrobial potency of 2500 unit/mg.

Turning to 3-Guanidinopropylaminophleomycin, in data set [1] (setting [3]), the Antimicrobial potency is reported as 2300 unit/mg.

On to 3-Morpholinopropylaminobleomycin, for which the “Average longevity (mean survival period in 50 days)” value turned out to be 11.8 in data set [2] (setting [5]); 11.8 in data set [2] (setting [6]); 33.0 in data set [2] (setting [7]); 36.6 in data set [2] (setting [8]); 45.2 in data set [2] (setting [9]); 34.2 in data set [2] (setting [10]). The “Average longevity (mean survival period in 50 days)” value in data set [2] (setting [11]) is on record as 30.4; in data set [2] (setting [12]), 12.4. Further, the “Longevity ratio (mean survival period to that of reference mouse multiplied by 100)” value in data set [2] (setting [5]) came out at 97; in data set [2] (setting [6]), 97; in data set [2] (setting [7]), 270; in data set [2] (setting [8]) it was 300; in data set [2] (setting [9]) it was 370; in data set [2] (setting [10]) it was 280. Also, the “Longevity ratio (mean survival period to that of reference mouse multiplied by 100)” value in data set [2] (setting [11]) was determined as 249; in data set [2] (setting [12]), 102. For the same substance, the “Toxicity, number dead/total number” value is 0/5 in data set [2] (setting [5]); 0/5 in data set [2] (setting [6]); 0/5 in data set [2] (setting [7]); 0/5 in data set [2] (setting [8]); 0/5 in data set [2] (setting [9]); 2/5 in data set [2] (setting [10]). Further, the “Toxicity, number dead/total number” value is recorded as 4/5 in data set [2] (setting [11]) and 5/5 in data set [2] (setting [12]). Further, the “Viability (after 50 days), number survived/total number” value is reported as 0/5 in data set [2] (setting [5]); 0/5 in data set [2] (setting [6]); 2/5 in data set [2] (setting [7]); 3/5 in data set [2] (setting [8]); 4/5 in data set [2] (setting [9]); 3/5 in data set [2] (setting [10]). Moreover, the entries for the “Viability (after 50 days), number survived/total number” value in data set [2] (setting [11]) and in data set [2] (setting [12]) were 1/5 and 0/5, respectively. In data set [2], this substance came in with a Chemotherapeutic index of 21.7. For the same substance, in data set [2] (Tables 2 to 4, i.p., for 10 days, 72000 min), the “Chemotherapeutic index (LD50/ED50)” value worked out at 12.1. Further, the “LD50 (50 % lethal dose)” value in data set [2] (i.p., for 10 days, Behrens-Karber method, 72000 min) stood at 9.4 mg/kg/day. Besides, the “ED50 (50 % effective dose)” value in data set [2] (i.p., for 10 days, maximum dose level within the range of longevity ratio of 100 to 200, 72000 min) is reported as 0.78 mg/kg/day. The “Antimicrobial activity to Mycobacterium smegmatis 607” value in data set [1] (Referential Example, standard copper-free bleomycin A2 free base 1,000 U/mg) is on record as 605 U/mg. In addition, the Antimicrobial potency in data set [1] (setting [4]) is 592 Unit/mg.

In turn, 3-N,N-Diethylaminopropylaminophleomycin registered an Antimicrobial potency in data set [1] (setting [3]) of 829 unit/mg.

Take “3-N,N-Dimethylaminopropylaminophleomycin”: the Antimicrobial potency in data set [1] (setting [3]) came to 648 unit/mg.

“3-N-(1-Phenylethyl)aminopropylaminophleomycin” displayed an Antimicrobial potency in data set [1] (setting [3]) of 4030 unit/mg.

On to “3-N-(3,3-Dichloropropyl)aminopropylaminophleomycin”, for which the Antimicrobial potency in data set [1] (setting [3]) is listed as 3120 unit/mg.

For “3-N-(3-Hydroxypropyl)aminopropylaminophleomycin”, the Antimicrobial potency in data set [1] (setting [3]) was 845 unit/mg.

Turning to 3-N-Benzylaminopropylaminophleomycin, the Antimicrobial potency in data set [1] (setting [3]) is 3373 unit/mg.

Substance “3-N-Cyclohexylaminopropylaminophleomycin” returned an Antimicrobial potency in data set [1] (setting [3]) of 4284 unit/mg.

Consider 3-N-Methylaminopropylaminophleomycin, for which, in data set [1] (setting [3]), the Antimicrobial potency came to 688 unit/mg.

Substance 3-N-Propenylaminopropylaminophleomycin came in with an Antimicrobial potency in data set [1] (setting [3]) of 2100 unit/mg.

On to 3-N-n-Butylaminopropylaminophleomycin, for which the Antimicrobial potency in data set [1] (setting [3]) is recorded as 3535 unit/mg.

On to “3-N-tert-Butylaminopropylaminophleomycin”, for which the Antimicrobial potency in data set [1] (setting [3]) is recorded as 3520 unit/mg.

Take 3-Piperazinopropylaminophleomycin: the Antimicrobial potency in data set [1] (setting [3]) worked out at 581 unit/mg.

As to 3-Piperidinopropylaminophleomycin, the Antimicrobial potency in data set [1] (setting [3]) stood at 1006 unit/mg.

The substance 3-Pyrrolidinopropylaminophleomycin gave an Antimicrobial potency in data set [1] (setting [3]) of 853 unit/mg.

In turn, “3-[3-N-(1-phenylethyl)aminopropylamino]propylaminophleomycin” displayed an Antimicrobial potency in data set [1] (setting [3]) of 7208 unit/mg.

These data come from patent US3984390A, “Novel process for producing phleomycin group antibiotics” (Zaidan Hojin Biseibutsu Kagaku Kenkyu Kai, priority 1972, dated 1976).
